For the test, the system named is trauma-induced caecal adhesion in rats. The test is described as follows: trauma-induced caecal adhesion model in rats. It counts as in vivo, rat. As to the method:
Models of peritoneal adhesions induced by surgical trauma have been used to predict the clinical activity of a number of marketed anti-adhesion barrier devices. One such model is the trauma-induced caecal adhesion model in rats. A representative retinoid antagonist compound of the present invention, 4-{{(E)-(5,6-dihydro-5,5-dimethyl-8-phenyl)-2-naphthalenyl]vinyl]benzoic acid of the formula [drawing 49]
Adult female Wistar rats were used in our studies. The trauma induction was carried out using aseptic conditions in animals anesthetized with a mixture of Ketamine (100 mg/kg) and Rompun (10 mg/kg) given IP. A 2 cm midline abdominal incision was made and the caecum was exteriorized. Both sides of the caecum were abraded with a dry gauze until there was evidence of punctate bleeding. After replacing the organ in the abdominal cavity, the incision was closed. Trauma to the caecum produces fibrous scar tissue or adhesions to adjacent organs, peritoneal wall, or the omentum. Animals were treated with test compound orally or by intravenous injection or intra-abdominally by direct instillation into the peritoneal cavity. Oral treatments were administered once daily for up to 7 days. Intra-abdominal treatments were applied once post-trauma and just prior to wound closure.
On the seventh postoperative day, the animals were sacrificed and the peritoneal cavity was exposed and examined for adhesions. Three criteria that were used to evaluate the adhesions are: severity of the adhesions, extent or area of the ceacum involved with adhesions and the number of adhesions formed in each animal. Statistical analysis of the data was performed using students' T test. The following scoring system was used:
The test compound described above administered by the intra-abdominal route was compared to some other representative retinoid antagonists of the present invention. A single dose of compound in 3 ml volume was instilled over the traumatized caecum and abdominal cavity prior to closing the incision. Seven days later the animals were sacrificed and the abdominal cavity was examined for adhesions to the caecum.

[1] abbreviates: administered orally for 7 days, 10 and 15 mg/kg, compared to the vehicle control (FIG. 1).

Take `CC1=C(/C=C/C(C)=C/C=C/C(C)=C/C(=O)O)C(C)(C)CCC1` [All-trans retinoic acid, all-trans retinoic acid, reference compound]: the “effect on trauma induced adhesions (number, severity and extent of caecal adhesions)” value (orally administered, at twice the dose of the test compound (Table 1)) is given as “no significant effect”.

As for `CC1(C)CC=C(c2ccccc2)c2cc(/C=C/c3ccc(C(=O)O)cc3)ccc21` [compound A, 4-{{(E)-(5,6-dihydro-5,5-dimethyl-8-phenyl)-2-naphthalenyl]vinyl]benzoic acid], under setting [1], the “number of adhesions per animal” value is “significantly reduced” and the “severity of adhesions per animal” value is given as “significantly reduced”. Further, the “severity of caecal adhesions” value (single intra-abdominal application at 5 mg in 3 ml, examined seven days later (Table 2)) is on record as “effectively reduced”. The “number of adhesions formed” value (single intra-abdominal application at 5 mg in 3 ml, examined seven days later, compared to the vehicle control (Table 2)) was “significantly reduced”.

These data come from US20010003780A1, “Retinoid antagonists and uses thereof” (priority 1997, published 2001).
